Laboratory results published in US20140309172A1, “ICE INHIBITING COMPOUNDS AND USES THEREOF” (priority 2010, published 2014).

Experiments:
[1] = Preliminary tests of blood-brain barrier penetration in animals; type: in vivo
[2] = tested on: M17 cells overexpressing alpha-synuclein; assay: Cell viability of M17 cells overexpressing alpha-synuclein (LIVE/DEAD assay); type: cell-based, human
Text: Humans have 28 calpain and caspase isozymes—a large but not impossible number to test. RNAi was used to knock down each of these in turn in a neuronal cell culture model of PD. It is a neuroblastoma cell line (BE(2)-M17) carrying a wild-type α-synuclein overexpressing vector. BE(2)-M17 is a clone of the SK-N-BE(2) cell line that was established in November of 1972 from a bone marrow biopsy taken from a child with neuroblastoma. Synuclein on its own is not toxic to these cells, but it is toxic when combined with an oxidative stress agent such as rotenone or menadione. Greater than 90% reduction of mRNA levels for each of the 29 protease genes was routinely achieved, and greater than 50% reduction in protein levels (typically, about 70% reduction) was routinely achieved.
A cell viability assay was performed using LIVE/DEAD (molecular probes) assay according to the manufacture instructions. As summarized in FIG. 10, both RNAi knockdown of caspase-1/ICE and treatment with the caspase-1/ICE inhibitor block synuclein fragment formation in nerve cells and should inhibit synuclein aggregation in neuronal cells derived from one or more mouse models of PD.

[3] = tested on: M17 cells carrying empty pcDNA3 vector; assay: Cell viability of M17 cells with pcDNA3 empty vector in the presence of menadione; type: cell-based, human; settings: low concentrations of menadione, FIG. 8

Row | BBB penetration [1] | SMILES | rescue from alpha-synuclein-induced toxicity (cell viability) ([2]; M17 cells overexpressing alpha-synuclein, FIG. 10) | toxicity to M17 cells carrying empty pcDNA3 vector [3] | toxicity to M17 cells overexpressing a-synuclein ([2]; low concentrations of menadione, FIG. 8)
1 | low | CC(C)(C)[C@H](NC(=O)c1ccc(N)c(Cl)c1)C(=O)N1CCC[C@H]1C(=O)N[C@H](C#N)CC(=O)O [NCGC00185682] | – | – | –
2 | low | CCO[C@@H]1OC(=O)C[C@@H]1NC(=O)[C@@H]1CCCN1C(=O)[C@@H](NC(=O)c1ccc(N)c(Cl)c1)C(C)(C)C [VX-765] | rescued | – | –
3 | – | CC1=CC(=O)c2ccccc2C1=O [menadione] | – | not toxic | toxic
